Results from EP0095292A1, “5-(2-halogenovinyl)-2'-deoxyuridine derivatives, processes for their preparation, pharmaceutical compositions containing them, and their use in treating viral infections"” (BEECHAM GROUP PLC, priority 1982, dated 1983).
Read-outs that look alike come from different tables or passages of the source.

Legend:
[1] = tested on: Herpes simplex type 1 virus (HFEM strain); assay: Plaque reduction assay in virus-infected Vero cells (agarose overlay, 4 days); format: cell-based; conditions: Human alphaherpesvirus 1, 96 h, concentration causing a 50% reduction in the number of virus plaques, 4 days incubation, read-out: PDD50 (the source's name)
Procedure: (§1) Vero (African Green Monkey Kidney) cells were grown to confluence in 24 well multidishes, each well being 1.6 cm in diameter. The cells were infected with Herpes simplex type 1 virus (HFEM strain) and overlaid with 0.5 mL of 0.9% agarose (w/v) in maintenance medium. Test compounds prepared in maintenance medium in concentrations ranging from […] in half-log dilution steps, were added in 0.5 mL volume. The virus infected cultures were then incubated at 37^0CC for 4 days before fixing in 4% formaldehyde solution and staining with carbolfuchsin.

[2] = Cytotoxicity observed in the plaque reduction assay cultures; format: cell-based; conditions: african green monkey, vero cells; minimum concentration of test compound which caused cytotoxicity; virus-infected Vero cultures, 4 days; read-out: MTD
Procedure: as §1

| IC50 ([1]; molar units) [nM] | IC50 [1] [µg/mL] | Structure (SMILES) | MCC at 96 h [2] [µg/mL] |
| --- | --- | --- | --- |
| 2100 | 1.5 | O=C(OC[C@H]1O[C@@H](n2cc(/C=C/Br)c(=O)[nH]c2=O)C[C@@H]1O)OC[C@H]1O[C@@H](n2cc(/C=C/Br)c(=O)[nH]c2=O)C[C@@H]1O [Example 1, bis-[5-(E-2-Bromovinyl)-2'-deoxyuridin-5'-yl] carbonate] | 100 |
| 15100 | 12.4 | CC(=O)O[C@H]1C[C@H](n2cc(/C=C/Br)c(=O)[nH]c2=O)O[C@@H]1COC(=O)OC[C@H]1O[C@@H](n2cc(/C=C/Br)c(=O)n(C(C)=O)c2=O)C[C@@H]1OC(C)=O [Example 2, 3',3'-Q-3-Triacetyl-bis-[5-(E-2-bromovinyl)-2'-deoxyuridin-5'-yl] carbonate] | 100 |
| 10900 | 8.5 | CC(=O)O[C@H]1C[C@H](n2cc(/C=C/Br)c(=O)[nH]c2=O)O[C@@H]1COC(=O)OC[C@H]1O[C@@H](n2cc(/C=C/Br)c(=O)[nH]c2=O)C[C@@H]1OC(C)=O [Example 3, bis-[3'-O-Acetyl-5-(E-2-bromovinyl)-2'-deoxyuridin-5'-yl] carbonate] | 100 |
| 500 | 0.34 | O=C(O[C@H]1C[C@H](n2cc(/C=C/Br)c(=O)[nH]c2=O)O[C@@H]1CO)O[C@H]1C[C@H](n2cc(/C=C/Br)c(=O)[nH]c2=O)O[C@@H]1CO [Example 4, bis-[5-(E-2-Bromovinyl)-2'-deoxyuridin-3'-yl] carbonate] | 100 |
| 100 | 0.07 | O=C(n1c(=O)c(/C=C/Br)cn([C@H]2C[C@H](O)[C@@H](CO)O2)c1=O)n1c(=O)c(/C=C/Br)cn([C@H]2C[C@H](O)[C@@H](CO)O2)c1=O [Example 5, 3,3-Carbonyl-bis-[5-(E-2-bromovinyl)-2'-deoxyuridine]] | 100 |
| 6400 | 4.8 | O=C(CCC(=O)OC[C@H]1O[C@@H](n2cc(/C=C/Br)c(=O)[nH]c2=O)C[C@@H]1O)OC[C@H]1O[C@@H](n2cc(/C=C/Br)c(=O)[nH]c2=O)C[C@@H]1O [Example 6, bis-[5-(E-2-Bromovinyl)-2'-deoxyuridin-5'-yl] succinate] | 100 |
| 140 | 0.12 | O=C(CCCCCCCCC(=O)OC[C@H]1O[C@@H](n2cc(/C=C/Br)c(=O)[nH]c2=O)C[C@@H]1O)OC[C@H]1O[C@@H](n2cc(/C=C/Br)c(=O)[nH]c2=O)C[C@@H]1O [Example 7, bis-[5-(E-2-Bromovinyl)-2'-deoxyuridin-5'-yl] sebacate] | 100 |
